Source: patent US6977269B1, “Method of improving animal tissue quality” (Pioneer Hi-Bred International, Inc, priority 2001, dated 2005)
Read-outs that look alike come from different tables or passages of the source. Marks after values point to notes of the source that are not given here.

Tests used:
[1] = system: pigs; test: Minolta Chroma Meter L*, a*, b* of pork chops in simulated retail display; format: in vivo
Description: (§1) Young pigs were fed a diet containing 15 IU/kg feed (=15 mg/kg feed=[…]) vitamin E (in the form of alpha-tocopherol acetate) up to 120 pounds. Upon reaching 120 pounds, the pigs were randomly assigned to treatments using weight as a blocking factor. Sixteen pigs were allocated to the control diet, while thirteen pigs were allocated to each test diet. Treatments consisted of typical corn-soybean meal based diets with three levels of dietary tocopherol: (1) Control diet (15 mg/kg feed alpha-tocopherol acetate); (2) diets supplemented with 150, 300 or 450 mg/kg feed alpha-tocopherol acetate; and (3) diets supplemented with 150, 300 or 450 mg/kg feed gamma-tocopherol. Diets were formulated to provide adequate levels of all nutrients and fed in four phases.
Pork chops (2.5 cm) were cut from vacuum-packaged pork loins that had been stored for 21 days at 1 degree C. Freshly cut chops were placed on styrofoam trays with DriLoc (V 50 pads) and overwrapped with PVC (23,250 cc/m 2 /24 hours oxygen permeability). Pork chops were placed in simulated retail display at 2±3 degrees C. for six days. Product temperature was monitored during the display period. Chops were analyzed for lightness (L*), redness (a*), and yellowness (b*) using Illuminant C or D65 on a Minolta Chroma Meter. Three readings per chop were taken on display days 0, 1, 2, 3, 4 and 5.
(§2) Data were analyzed using the GLM procedure of SAS. Due to a limited number of observations from the 150 IU alpha-tocopherol treatment, no estimates of carcass or loin quality measures are presented for that treatment. Data collected over a period of days were also analyzed as a splitplot. Contrasts were made between the Control and added tocopherol diets, Control and alpha-tocopherol, Control and gamma-tocopherol, and alpha- versus gamma-tocopherol.

[2] = Lamb loin antioxidant concentrations
[3] = system: pigs; test: Japanese color score of pork loin in swine feeding trial; format: in vivo
Description: Applicants assessed the effects of gamma-tocopherol supplementation on meat quality in an experiment in which pork from pigs fed one of three dietary concentrations of gamma-tocopherol was compared to pork from pigs fed either no supplemental tocopherol in excess of amounts needed to support growth and development, or one of three dietary concentrations of alpha-tocopherol.
as §1
The levels of alpha-tocopherol supplementation chosen were those previously shown to improve meat quality and the pigs consuming these diets were used as positive controls. Pigs consuming diets without additional supplementation of alpha or gamma-tocopherol were used as negative controls. Pork quality was assessed using standard methods, including pH, Japanese color score, oxidative stability, retail display appearance and Minolta color values.
The trial was terminated when the average weight of a treatment replicate reached 260 pounds (minimum of 60 days). Standard carcass data (hot carcass weight, backfat, loin depth and lean) were collected. In addition to the standard carcass data collected at the slaughter plant, color, pH, marbling, firmness and Hunter Lab data were collected. Loin and ham samples were also collected for determination of gamma-tocopherol concentration.
as §2

[4] = system: lambs; test: Lamb loin chop coloration in retail display (Hunter values, trained panel); format: in vivo; settings: for Hunter L / Hunter a / Hunter b: lamb loin chops, retail case display; for Discoloration: lean discoloration; for Discoloration / Brown color intensity: trained panel
Description: Following carcass fabrication, one boneless leg and the double loin were collected from each carcass, vacuum-packaged, transported and stored under refrigeration (2 to 4° C.) for seven days. […] chops were fabricated from the semimembranosus muscle from each leg following storage. Leg and double-loin chops were wrapped in oxygen permeable fresh meat PVC film. […] The leg chops and second portion of double loin chops were stored in a walk-in cooler.
After seven days in storage, the leg and loin were placed in a display case for nine days to simulate retail meat counter display conditions. Both sides of the double loin chops were evaluated on days 1, 3, 5 and 9 of retail case display for percent lean discoloration and intensity of brownness by a seven-member trained panel and also by a Spectroguard Computer Color Control System. Left and right observation values were averaged.

[5] = in vivo; settings: male, sheep (lambs)
[6] = male, sheep (lambs), in vivo
[7] = system: iron-loaded rats; settings: ability to inhibit lipid peroxidation; cited from earlier work
[8] = pork loin, all supplemented levels pooled

| SMILES | Minolta L* values (after 5 day retail display) ([1]; all supplemented levels pooled) | Minolta a* values (after 5 day retail display) ([1]; all supplemented levels pooled) | Minolta b* values (after 5 day retail display) ([1]; all supplemented levels pooled) | Minolta L* values (after 5 day retail display) ([1]; dietary level 300 IU) | Minolta a* values (after 5 day retail display) ([1]; dietary level 300 IU) | Minolta b* values (after 5 day retail display) ([1]; dietary level 300 IU) | Minolta L* values (after 5 day retail display) ([1]; dietary level 450 IU) | Minolta a* values (after 5 day retail display) ([1]; dietary level 450 IU) | Minolta b* values (after 5 day retail display) ([1]; dietary level 450 IU) | Japanese Color Score ([3]; dietary level 300 IU) | Japanese Color Score ([3]; dietary level 450 IU) | Japanese Color Score [3, 8] | Hunter L [4] | Hunter a [4] | Hunter b [4] | Discoloration [4] [%] | Brown color intensity [4] | also measured |
| --- | --- | --- | --- | --- | --- | --- | --- | --- | --- | --- | --- | --- | --- | --- | --- | --- | --- | --- |
| Cc1c(C)c2c(c(C)c1O)CC[C@@](C)(CCC[C@H](C)CCC[C@H](C)CCCC(C)C)O2 [Alpha-tocopherol, alpha-tocopherol, reference compound] | 43.6 | 7.49 | 4.95 | 45.3^ab | 8.40^a | 5.93^ab | 41.9^bc | 6.58^b | 3.97^bc | 3.56^ab | 3.94^ab | 3.75 | 36.3^b | 11.9 | 7.54 | 12.6 | 8.30^b | Alpha-Tocopherol in loin ([2]; Day 1): 3.83^a μg/g; Gamma-Tocopherol in loin ([2]; Day 1): 0.30^b μg/g; Total antioxidant in loin ([2]; Day 1): 4.13^b μg/g; Alpha-Tocopherol in loin ([2]; Day 6): 6.22^a μg/g; Gamma-Tocopherol in loin ([2]; Day 6): 0.43^b μg/g; Total antioxidant in loin ([2]; Day 6): 6.70^b μg/g; Alpha-Tocopherol in loin ([2]; Overall): 5.04^a μg/g; Gamma-Tocopherol in loin ([2]; Overall): 0.37^b μg/g; Total antioxidant in loin ([2]; Overall): 5.41^b μg/g |
| Cc1c(O)cc2c(c1C)O[C@](C)(CCC[C@H](C)CCC[C@H](C)CCCC(C)C)CC2 [Gamma-tocopherol, gamma-tocopherol] | 41.4 | 8.13 | 4.48 | 39.7^c | 8.20^a | 3.85^c | 43.0^b | 8.05^a | 5.12^bc | 4.32^a | 3.56^ab | 3.94 | 38.4^a | 11.7 | 8.11 | 13.7 | 10.3^ab | concentration at 1 day [5]: 7180 ng/g; concentration at 6 day [5]: 5570 ng/g; Minolta L* values (after 5 day retail display) ([1]; dietary level 150 IU): 42.4^bc; Minolta a* values (after 5 day retail display) ([1]; dietary level 150 IU): 7.57^ab; Minolta b* values (after 5 day retail display) ([1]; dietary level 150 IU): 5.13^bc; Minolta a* values (after 5 day retail display) ([1]; dietary level 300 IU, listed as gamma-tocopherol): 8.40; Alpha-Tocopherol in loin [6]: 3.22^b μg/g; Increase of tissue gamma-tocopherol level over control treatment [6]: over 35 times; Total antioxidant in loin [6]: 9.57^a μg/g; Alpha-Tocopherol in loin ([6]; 1 day): 3.47^a μg/g; Total antioxidant in loin ([6]; 1 day): 10.6^a μg/g; Alpha-Tocopherol in loin ([6]; 6 day): 2.87^b μg/g; Total antioxidant in loin ([6]; 6 day): 8.47^a μg/g; Japanese Color Score ([3]; dietary level 150 IU): 3.18^ab; antioxidant efficacy relative to alpha-tocopherol on a per unit mass basis [7]: about one-third |
